The results in this text go back to patent publication US20030100769A1, “Cyclic amidine compounds” (priority 2000, published 2003).

In test [1] the target is α1β1γδ subtype of nicotinic acetylcholine receptors (Rattus norvegicus, UniProt P18916+P25108+P25109+P25110). Description: biochemical. The test is classed as binding. As to conditions: for remaining activity at 100 µM: read-out: control % of [3H]-α-Bgt binding at 100 μM of test compound; for remaining activity at 1000 µM: read-out: control % of [3H]-α-Bgt binding at 1,000 μM of test compound. The text has this: (§1) The methods for evaluating the binding capabilities of the compounds at nicotinic acetylcholine receptors are different by subtypes of receptors. The binding capabilities of the compounds at α4β2 nicotinic acetylcholine receptors are examined using rat brain membrane obtained from whole homogenized brain, and determining the inhibiting rate of the compounds against [^3H]-cytisine binding to said brain membrane. Furthermore, the binding capabilities of the compounds at α1β1γδ nicotinic acetylcholine receptors are examined using homogenized rat muscle, and determining the inhibiting rate of the compounds against [^3H]-α-bungarotoxin binding to said muscle homogenate.
Sequence of α1β1γδ subtype of nicotinic acetylcholine receptors (P25109 24-501): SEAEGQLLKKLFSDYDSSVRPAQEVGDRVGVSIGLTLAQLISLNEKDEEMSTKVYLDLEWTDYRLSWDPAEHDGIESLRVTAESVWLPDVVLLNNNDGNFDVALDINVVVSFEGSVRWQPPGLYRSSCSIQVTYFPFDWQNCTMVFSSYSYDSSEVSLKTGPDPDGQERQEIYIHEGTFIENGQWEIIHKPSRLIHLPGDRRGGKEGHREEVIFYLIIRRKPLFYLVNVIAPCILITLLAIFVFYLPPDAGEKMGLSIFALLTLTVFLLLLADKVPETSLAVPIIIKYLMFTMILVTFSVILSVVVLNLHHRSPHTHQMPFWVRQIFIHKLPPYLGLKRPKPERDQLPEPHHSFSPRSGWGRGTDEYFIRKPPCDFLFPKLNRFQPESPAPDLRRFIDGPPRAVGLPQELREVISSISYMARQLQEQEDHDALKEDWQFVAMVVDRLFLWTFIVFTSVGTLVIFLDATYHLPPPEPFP
Sequence of α1β1γδ subtype of nicotinic acetylcholine receptors (P25110 22-517): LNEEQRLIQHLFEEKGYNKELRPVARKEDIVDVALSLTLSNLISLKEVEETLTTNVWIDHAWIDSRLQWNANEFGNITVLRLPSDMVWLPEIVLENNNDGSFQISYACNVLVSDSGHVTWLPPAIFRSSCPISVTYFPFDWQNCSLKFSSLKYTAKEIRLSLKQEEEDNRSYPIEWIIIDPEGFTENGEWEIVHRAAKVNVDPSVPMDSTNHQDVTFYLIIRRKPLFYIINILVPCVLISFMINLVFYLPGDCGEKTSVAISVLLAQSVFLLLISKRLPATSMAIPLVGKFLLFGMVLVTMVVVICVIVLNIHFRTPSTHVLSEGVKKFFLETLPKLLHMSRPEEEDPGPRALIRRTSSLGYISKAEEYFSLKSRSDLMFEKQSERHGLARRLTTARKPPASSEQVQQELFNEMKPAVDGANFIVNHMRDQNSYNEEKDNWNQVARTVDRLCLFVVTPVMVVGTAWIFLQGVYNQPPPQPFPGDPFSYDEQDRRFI
Sequence of α1β1γδ subtype of nicotinic acetylcholine receptors (P25108 21-457): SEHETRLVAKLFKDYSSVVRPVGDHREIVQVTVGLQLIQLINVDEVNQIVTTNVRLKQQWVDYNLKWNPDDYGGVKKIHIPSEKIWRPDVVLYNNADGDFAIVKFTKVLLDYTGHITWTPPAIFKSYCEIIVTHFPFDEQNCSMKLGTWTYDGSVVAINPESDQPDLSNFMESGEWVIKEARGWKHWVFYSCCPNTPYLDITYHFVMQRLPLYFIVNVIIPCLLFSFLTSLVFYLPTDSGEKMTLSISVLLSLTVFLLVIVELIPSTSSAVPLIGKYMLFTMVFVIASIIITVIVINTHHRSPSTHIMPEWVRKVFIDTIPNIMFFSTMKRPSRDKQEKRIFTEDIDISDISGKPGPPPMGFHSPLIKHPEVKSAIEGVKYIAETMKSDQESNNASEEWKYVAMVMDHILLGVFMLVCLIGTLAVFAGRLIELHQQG
Binding Assays at α1β1γδ Subtype of Nicotinic Acetylcholine Receptors
The affinity of the compounds of the present invention to α1β1γδ subtype of nicotinic acetylcholine receptors was measured by the following method, which was modified method described by Garcha H. S., Thomas P., Spivak C.
(1) Preparation of Rat Skeletal Muscles Containing α1β1γδ Subtype of Nicotinic Acetylcholine Receptors
The substantially same animals described in the Biological Experiment 1 were used.
The isolation of α1β1γδ subtype of nicotinic acetylcholine receptors was performed as follow. That is, rat posterior skeletal muscles were isolated just after sacrificed by decapitation, washed with ice-cooled saline solution and then frozen at −80° C. with liquid nitrogen and stored till using. After thawing the frozen muscles, tissue was homogenized ([…]) with buffer solution [2.5 mM of sodium phosphate buffer (pH:7.2), 90 mM of NaCl, 2 mM of KCl, 1 mM of EDTA, 2 mM of benzamidine, 0.1 mM of benzethonium chloride, 0.1 mM of PMSF, 0.01% of sodium azide] in Waring blender (Waring blender 34BL97; WARING PRODUCTS DIVISION DYNAMICS CORPORATION OF AMERICA) for 60 seconds. The homogenate were centrifuged under 20,000×G for 60 minutes at 4° C. The supernatant was separated and the resulting pellet was added to the same buffer (1.5 ml/g wet weight), and homogenized under the same conditions. Triton X100 (2% w/v) was added and the mixture was stirred for 3 hours at 4° C. The centrifugation at 100,000×G for 60 minutes at 4° C. yielded the rat muscle extract as supernatant. This was stored at 4° C. for up to 4 weeks, and used for binding assays at receptors.
(2) Experiments of α1β1γδ Subtype of Nicotinic Acetylcholine Receptors Binding
Receptors binding experiments were performed as follow. That is, the extract of rat muscle containing 600-900 μg of protein was added to test tubes containing test compounds and incubated for 15 minutes at 37° C. Then, to this mixture was added 1 nM of [^3H]-α-bungarotoxin (α-Bgt) and further incubated for 2 hours. The samples were isolated by vacuum filtration onto Whatman GF/B filters, which were prerinsed with 0.5% polyethylenimine just prior to sample filtration, using Brandel multi manifold cell harvester. The filters were rapidly rinsed with washing solution (10 mM of KH2PO4, 150 mM of NaCl, pH 7.2, room temperature) (5×1 ml). The filters were counted in 3 ml of clearsol I (Nacalai Tesque Inc.). The determination of nonspecific binding was incubated in the presence of 1 μM α-Bgt. […] In the receptor binding experiments, said buffer solution was added for adjusting the final concentration of BSA to be 0.05%.
The analyses of the experimental results were conducted by the same way as described in the Biological Experiment 1.

The target of test [2] is T1, α4β2 subtype of nicotinic acetylcholine receptors (Rattus norvegicus, UniProt P09483+P12390).
T1 construct: examined using rat brain membrane obtained from whole homogenized brain; from tissue; host or cells: rat whole brain membranes (Fischer-344 male rats)
T1 sequence (P09483 31-630): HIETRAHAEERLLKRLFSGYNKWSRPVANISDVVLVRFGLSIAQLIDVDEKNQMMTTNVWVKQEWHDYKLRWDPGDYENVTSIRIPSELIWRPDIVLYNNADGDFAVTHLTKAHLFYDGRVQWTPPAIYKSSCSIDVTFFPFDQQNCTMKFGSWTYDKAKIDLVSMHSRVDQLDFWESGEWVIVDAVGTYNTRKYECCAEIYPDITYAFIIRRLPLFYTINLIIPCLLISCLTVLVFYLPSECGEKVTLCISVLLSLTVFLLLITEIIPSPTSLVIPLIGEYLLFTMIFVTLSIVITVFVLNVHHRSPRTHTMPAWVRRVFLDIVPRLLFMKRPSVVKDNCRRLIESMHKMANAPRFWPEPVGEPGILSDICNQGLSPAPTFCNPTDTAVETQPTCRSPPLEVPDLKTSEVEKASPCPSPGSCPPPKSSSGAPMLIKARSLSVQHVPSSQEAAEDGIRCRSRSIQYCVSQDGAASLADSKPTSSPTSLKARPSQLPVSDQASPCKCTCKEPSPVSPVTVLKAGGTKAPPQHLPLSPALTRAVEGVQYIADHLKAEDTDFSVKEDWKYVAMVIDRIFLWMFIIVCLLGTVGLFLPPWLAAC
T1 sequence (P12390 25-500): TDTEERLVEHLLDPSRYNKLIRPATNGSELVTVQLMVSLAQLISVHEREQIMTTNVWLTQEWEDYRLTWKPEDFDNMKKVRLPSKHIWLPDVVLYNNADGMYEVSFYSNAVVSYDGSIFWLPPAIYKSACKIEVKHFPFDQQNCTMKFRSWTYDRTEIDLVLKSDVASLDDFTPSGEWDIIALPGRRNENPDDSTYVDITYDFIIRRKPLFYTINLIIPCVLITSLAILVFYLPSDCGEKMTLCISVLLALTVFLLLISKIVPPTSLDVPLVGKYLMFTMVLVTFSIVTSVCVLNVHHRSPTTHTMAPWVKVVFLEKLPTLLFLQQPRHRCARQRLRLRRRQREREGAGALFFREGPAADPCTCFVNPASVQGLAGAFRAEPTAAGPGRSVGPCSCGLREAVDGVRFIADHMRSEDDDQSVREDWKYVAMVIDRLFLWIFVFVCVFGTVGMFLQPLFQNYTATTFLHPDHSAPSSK
Description: Binding assay at α4β2 subtype of nicotinic acetylcholine receptors ([3H]-cytisine, rat brain membrane).
From the text: as §1
Binding Assays at α4β2 Subtype of Nicotinic Acetylcholine Receptors
(1) Preparation of Rat Brain Membrane Containing α4β2 Subtype of Nicotinic Acetylcholine Receptors
Rats were housed in the breeding cage controlled of the room temperature at 23±1° C., and the humidity of 55±5% for 1 to 4 weeks. Rats (3 to 4 rats per a cage) were housed with lights on for 12 hours daily (from 7:00 to 19:00), and allowed free access to food and water.
Preparation of rat brain membrane containing α4β2 subtype of nicotinic acetylcholine receptors was performed as follow. That is, rat brains were isolated just after sacrificed by decapitation, washed with ice-cooled saline solution and then frozen at −80° C. with liquid nitrogen and stored till using. After thawing the frozen brain, the brain was homogenized in 10 volumes of ice-cooled buffer solution (50 mM of Tris-HCl, 120 mM of NaCl, 5 mM of KCl, 1 mM of MgCl2, 2 mM of CaCl2; pH 7.4; 4° C.) using homogenizer (HG30, Hitachi Kohki Ltd.) for 30 seconds, and the homogenate were centrifuged under 1,000×G for 10 minutes at 4° C. The resulting supernatant was separated and the pellet was homogenized again with half volume of aforementioned prior buffer solution and centrifuged under the same conditions. Combined supernatant was further centrifuged under 40,000×G for 20 minutes at 4° C. The pellet was suspended in buffer solution and used for binding assays at receptors.
(2) Experiments of α4β2 Subtype of Nicotinic Acetylcholine Receptors Binding
Suspensions of membrane pellets containing 400-600 μg of protein were added to test tubes containing test compounds and [^3H]-cytisine (2 nM) in a final volume of 200 μl and incubated for 75 minutes in ice-cooled bath. The samples were isolated by vacuum filtration onto Whatman GF/B filters, which were prerinsed with 0.5% polyethylenimine just prior to sample filtration, using Brandel multi manifold cell harvester. The filters were rapidly washed with buffer solution (3×1 ml). The filters were counted in 3 ml of clearsol I (Nacalai Tesque Inc.).
The analyses of the experimental results were conducted by using the Accufit Competition Program (Beckman Ltd.).

As to `Clc1ccc(C2=NCCCN2)cn1` [Compound 2, 2-(6-chloro-3-pyridyl)-1,4,5,6-tetrahydropyrimidine], in test [1], the remaining activity at 100 µM came out at 34% and the remaining activity at 1000 µM came out at 6%. The inhibition constant Ki in test [2] amounted to 13 nM.
Taken in the same sequence, the figures for `CN1CCN=C1c1ccc(Cl)nc1` [Compound 3, 2-(6-chloro-3-pyridyl)-1-methyl-2-imidazoline] were 34%, 5% and 45 nM.
In the same order, the values of `Clc1ncc(C2=NCCCN2)s1` [Compound 22, 2-(2-chloro-5-thiazolyl)-1,4,5,6-tetrahydropyrimidine] are 23%, -4% and 429 nM.
